The results in this text go back to publication PMC12621184, “Synthesis and Pharmacological Characterization of Nociceptin/Orphanin FQ Dimeric Ligands” (Journal of Medicinal Chemistry, 2025).

Values joined by “and” are separate entries in the source; they are usually repeats but may differ in a detail not shown here. Equal entries are not always repeated. Bridge positions count the residues as written; N and C are the ends. Peptide text beside a SMILES is read from it. I, II: the chains in the order shown. Where only a bound is given, the exact number is not on record here.

One experiment concerns the target T1, human μ opioid receptor (Homo sapiens, UniProt P35372).
T1 construct: expressed in transfected cells
Kind of experiment: Calcium mobilization assay, CHO cells with μ receptor and chimeric G protein. Format: cell-based. Particulars: CHO cells coexpressing human μ receptor and Gαqi5; 5 experiments in duplicate; read-out: calcium mobilization at μ receptor, concentration up to which inactive. As for the experimental part: (§1) Chinese hamster ovary (CHO) cells stably coexpressing the human NOP, μ, or κ opioid receptors and the Gαqi5 protein or the human δ and the GαqG66Di5 protein were used in this assay. , Cells were cultured in DMEM/F-12 (1:1) medium supplemented with 10% FBS, 2 mM L-glutamine, […], 100 IU/mL penicillin, and 100 IU/mL streptomycin. Cells were maintained at 37 °C in a humidified atmosphere with 5% CO2 and were seeded at 50 000 cells/well into 96-well black, clear-bottom plates 24 h before test. Loading for 45 min with a solution consisting of HBSS supplemented with 2.5 mM probenecid, 3 μM Fluo-4 AM, and 0.01% pluronic acid ensures the calcium-sensitive dye (Fluo-4) reaches the needed concentration inside the cell, while the exchange of the solution with 100 μL/well of buffer consisting of HBSS with 20 mM HEPES, 2.5 mM probenecid, and 500 μM Brilliant Black allows for fluorescence background to decrease. Serial dilutions of ligands were prepared in HBSS buffer with 20 mM HEPES and 0.02% bovine serum albumin (BSA) to minimize the ligands’ stickiness to plasticware. The automated microplate reader FlexStation II (Molecular Devices, CA, US) was employed at 37 °C to detect changes in fluorescence intensity. The effects of all compounds were expressed as the maximum change in percentage over the baseline fluorescence measured in samples treated with vehicles. […]
On the technique in general: A change in cytosolic calcium serves as a functional read-out for many receptors and channels.

The next experiment concerns the target T2, human δ opioid receptor (Homo sapiens, UniProt P41143).
T2 construct: expressed in transfected cells
The experiment is described as follows: Calcium mobilization assay, CHO cells with δ receptor and chimeric G protein. Particulars: CHO cells coexpressing human δ receptor and GαqG66Di5; 5 experiments in duplicate; read-out: calcium mobilization at δ receptor, concentration up to which inactive. Format: cell-based. The method, then:
as §1

Another experiment concerns the target T3, human κ opioid receptor (Homo sapiens, UniProt P41145).
T3 construct: expressed in transfected cells
Kind of experiment: Calcium mobilization assay, CHO cells with κ receptor and chimeric G protein. As to conditions: CHO cells coexpressing human κ receptor and Gαqi5; 5 experiments in duplicate; read-out: calcium mobilization at κ receptor, concentration up to which inactive. The experiment is classed as cell-based. The method, then: as §1

In experiment [1] the test system is loss of the righting reflex (RR) in mice. Kind of experiment: Loss of the righting reflex assay in mice. The experiment is classed as in vivo, mouse. As to conditions: icv. The method, then:
All of the experimental procedures adopted in the in vivo studies comply with the European Directive 2010/63/EU on protecting animals used for scientific purposes and Italian Legislative Decree no. 26 of March 4, 2014. These experiments were approved by the Animal Welfare Body of the University of Ferrara and by the Ministry of Health (authorization number 677/2024-PR). In vivo studies have been reported following ARRIVE guidelines. All experiments were conducted with mice bred and housed in the University of Ferrara’s animal facility under specific pathogen-free conditions. All mice were housed in cages with individual ventilation, with a constant temperature of 21 °C, 60% humidity, and a 12 h light/dark cycle. Food and water were provided ad libitum. CD-1 male and female mice, aged 2 to 4 months, were used. Details about the generation of NOP(−/−) and NOP(+/+) mice have been published previously; , these mice have been backcrossed on CD-1 strain in our laboratories. NOP(+/+) and NOP(−/−) littermates were obtained by mating with NOP(±) mice. All mice were genotyped using the polymerase chain reaction previously described. All mice were used only once. The RR assay was performed as previously described. […] Diazepam 15 mg/kg was injected ip. When the animals lost RR, they were placed in a plastic cage, and the time was recorded by an expert observer, blind to drug treatments and/or genotype. Animals were judged to have regained the RR response when they could correct themselves three times within 30 s. Sleeping time is defined as the amount of time between the loss and regaining of the RR; it was rounded to the nearest minute.
Concentration-response curves to agonists were analyzed by a four-parameter logistic nonlinear regression model: Effect = baseline + (E max – baseline)/(1 + 10^((logEC50–log[ligand])slope)). […] Experimental data were expressed as mean ± sem of at least 5 experiments. Potency values were expressed as the mean and CL95%. In vitro E max values were analyzed by one-way ANOVA, while in vivo latency data were evaluated by one-way ANOVA followed by Dunnett’s post hoc test. The proportion of mice losing the righting reflex was compared by Fisher’s exact test performed on raw data. GraphPad Prism 10.0 software was used for all of the analyses. The terminology employed is consistent with the International Union of Basic and Clinical Pharmacology (IUPHAR) recommendations. ,

The subject of experiment [2] is loss of the righting reflex (RR) in NOP(−/−) mice. Kind of experiment: Loss of the righting reflex assay in NOP(−/−) mice. Format: in vivo, mouse. Particulars: 10 nmol, icv; N = 7–9 per group. The method, then: All of the experimental procedures adopted in the in vivo studies comply with the European Directive 2010/63/EU on protecting animals used for scientific purposes and Italian Legislative Decree no. 26 of March 4, 2014. These experiments were approved by the Animal Welfare Body of the University of Ferrara and by the Ministry of Health (authorization number 677/2024-PR). In vivo studies have been reported following ARRIVE guidelines. All experiments were conducted with mice bred and housed in the University of Ferrara’s animal facility under specific pathogen-free conditions. All mice were housed in cages with individual ventilation, with a constant temperature of 21 °C, 60% humidity, and a 12 h light/dark cycle. Food and water were provided ad libitum. […] When the animals lost RR, they were placed in a plastic cage, and the time was recorded by an expert observer, blind to drug treatments and/or genotype. […]
Concentration-response curves to agonists were analyzed by a four-parameter logistic nonlinear regression model: Effect = baseline + (E max – baseline)/(1 + 10^((logEC50–log[ligand])slope)). […] Experimental data were expressed as mean ± sem of at least 5 experiments. Potency values were expressed as the mean and CL95%. In vitro E max values were analyzed by one-way ANOVA, while in vivo latency data were evaluated by one-way ANOVA followed by Dunnett’s post hoc test. […]

Experiment [3] deals with T4, human NOP (Homo sapiens, UniProt P41146). The experiment is described as follows: Calcium mobilization assay, CHO cells with NOP receptor and chimeric G protein. The experiment is classed as cell-based. Also noted: expressed in transfected cells.
T4 sequence (P41146 whole entry): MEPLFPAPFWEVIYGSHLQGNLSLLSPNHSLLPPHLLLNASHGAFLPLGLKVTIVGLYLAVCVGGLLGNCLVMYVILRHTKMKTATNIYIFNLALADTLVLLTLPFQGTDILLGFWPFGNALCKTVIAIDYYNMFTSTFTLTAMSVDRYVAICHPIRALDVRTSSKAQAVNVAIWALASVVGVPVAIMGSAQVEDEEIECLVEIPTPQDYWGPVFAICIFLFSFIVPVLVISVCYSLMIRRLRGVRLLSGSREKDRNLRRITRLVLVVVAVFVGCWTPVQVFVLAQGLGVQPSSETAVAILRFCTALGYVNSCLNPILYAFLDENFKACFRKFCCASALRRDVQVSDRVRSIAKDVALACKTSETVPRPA
Experiment [4] has as its target T4, human NOP. Kind of experiment: NOP receptor–G protein interaction BRET assay. Format: biochemical. More on the design: expressed in transfected cells; host or cells: membranes of HEK293 cells stably coexpressing NOP-RLuc and Gβ1-RGFP. Particulars: N = 5 experiments in duplicate. A digest of the protocol: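 Membranes (3 μg protein) from HEK293 cells stably coexpressing NOP-RLuc and Gβ1-RGFP were tested with 2 μM Prolume Purple coelenterazine at room temperature. BRET ratios (510/405 nm) were averaged over 10 min, vehicle-subtracted and normalized to N/OFQ maximal effect.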
Background: In BRET a luciferase serves as donor, and the signal depends on an acceptor being close.

T3 sequence (P41145 whole entry): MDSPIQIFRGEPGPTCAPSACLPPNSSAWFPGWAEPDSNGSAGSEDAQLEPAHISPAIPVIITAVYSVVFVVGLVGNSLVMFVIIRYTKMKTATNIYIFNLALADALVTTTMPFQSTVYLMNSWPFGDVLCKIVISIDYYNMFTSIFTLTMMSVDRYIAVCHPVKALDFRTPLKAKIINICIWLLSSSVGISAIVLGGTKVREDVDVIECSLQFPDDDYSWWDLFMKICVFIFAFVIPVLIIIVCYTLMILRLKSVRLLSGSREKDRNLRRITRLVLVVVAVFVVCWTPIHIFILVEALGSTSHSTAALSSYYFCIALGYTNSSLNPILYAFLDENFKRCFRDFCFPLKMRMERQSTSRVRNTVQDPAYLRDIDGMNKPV
T2 sequence (P41143 whole entry): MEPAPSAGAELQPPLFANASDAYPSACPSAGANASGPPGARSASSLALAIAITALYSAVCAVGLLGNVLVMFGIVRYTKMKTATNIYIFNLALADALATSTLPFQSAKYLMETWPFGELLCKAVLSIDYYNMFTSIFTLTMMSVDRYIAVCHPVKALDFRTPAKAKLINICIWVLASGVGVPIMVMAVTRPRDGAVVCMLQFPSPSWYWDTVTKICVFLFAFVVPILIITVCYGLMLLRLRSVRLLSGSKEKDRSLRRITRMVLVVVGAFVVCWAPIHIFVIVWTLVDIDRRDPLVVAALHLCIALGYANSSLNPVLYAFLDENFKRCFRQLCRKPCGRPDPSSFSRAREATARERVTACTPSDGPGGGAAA
T1 sequence (P35372 whole entry): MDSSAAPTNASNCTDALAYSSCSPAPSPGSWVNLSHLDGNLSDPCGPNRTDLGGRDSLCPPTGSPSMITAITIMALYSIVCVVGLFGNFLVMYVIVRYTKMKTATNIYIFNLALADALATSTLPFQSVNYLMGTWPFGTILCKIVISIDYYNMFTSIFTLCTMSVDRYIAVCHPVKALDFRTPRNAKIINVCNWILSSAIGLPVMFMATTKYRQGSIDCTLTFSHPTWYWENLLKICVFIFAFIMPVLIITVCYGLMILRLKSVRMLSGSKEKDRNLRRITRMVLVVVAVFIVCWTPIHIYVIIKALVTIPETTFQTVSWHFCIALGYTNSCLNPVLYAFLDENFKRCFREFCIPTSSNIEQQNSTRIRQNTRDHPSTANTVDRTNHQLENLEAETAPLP

`C[C@H](NC(=O)CNC(=O)[C@@H](NC(=O)[C@H](Cc1ccccc1)NC(=O)CNC(=O)CNC(=O)[C@@H](N)Cc1ccccc1)[C@@H](C)O)C(=O)N[C@@H](CCCNC(=N)N)C(=O)N[C@@H](CCCCN)C(=O)N[C@@H](CO)C(=O)N[C@@H](C)C(=O)N[C@@H](CCCNC(=N)N)C(=O)N[C@@H](CCCCN)C(=O)N[C@@H](CSSC[C@H](NC(=O)[C@H](CCCCN)NC(=O)[C@H](CCCNC(=N)N)NC(=O)[C@H](C)NC(=O)[C@H](CO)NC(=O)[C@H](CCCCN)NC(=O)[C@H](CCCNC(=N)N)NC(=O)[C@H](C)NC(=O)CNC(=O)[C@@H](NC(=O)[C@H](Cc1ccccc1)NC(=O)CNC(=O)CNC(=O)[C@@H](N)Cc1ccccc1)[C@@H](C)O)C(=O)N[C@@H](C)C(=O)N[C@@H](CC(N)=O)C(=O)N[C@@H](CCC(N)=O)C(N)=O)C(=O)N[C@@H](C)C(=O)N[C@@H](CC(N)=O)C(=O)N[C@@H](CCC(N)=O)C(N)=O` [1h, [[Cys^14]N/OFQ-NH2]2] (I: H-FGGFTGARKSARKCANQ-NH2 / II: H-FGGFTGARKSARKCANQ-NH2; disulfide I:14-II:14; N-terminus assumed): the EC50 at human μ opioid receptor was more than 1000 nM; at human δ opioid receptor, more than 1000 nM; at human κ opioid receptor it was more than 1000 nM; at human NOP [3] (CHO cells coexpressing human NOP and Gαqi5, Fluo-4, 37 °C, mean (CL95%), N = 5 experiments in duplicate, read-out: Ca^2+ mobilization pEC50 (CL95%) (converted)), < 1 nM and 0.724 nM; at human NOP [4] (membranes from HEK293 cells coexpressing NOP-RLuc and Gβ1-RGFP, room temperature, mean (CL95%), read-out: NOP–G protein interaction pEC50 (CL95%) (converted)), < 1 nM and 0.123 nM. The “mice that lost the RR, 3 nmol” value in experiment [1] (3 nmol, CD-1 mice, N = 8–10 per group) stood at 75%. Further, the “mice that lost the RR, 10 nmol” value in experiment [1] (10 nmol, CD-1 mice, N = 8–10 per group) was “all mice”. The “sleep duration (interval between loss and recovery of the RR)” value in experiment [1] (3 and 10 nmol, only mice that lost the RR, experimental cutoff 420 min) is recorded as not below 420 min. Besides, in experiment [1] (mice, vs N/OFQ (and N/OFQ-NH2)), the “potency in eliciting loss of the RR relative to N/OFQ” value was determined as 3 fold. For the same compound, the “duration of the effect on RR” value in experiment [1] (experimental cutoff 7 h) is reported as not below 7 h. The “loss of the RR in NOP(−/−) mice (in words)” value in experiment [2] is “completely inactive”. For the same compound, at human NOP [3] (CHO cells coexpressing human NOP and Gαqi5, maximum change in percentage over baseline fluorescence, mean ± sem, N = 5 in duplicate), the “Ca^2+ mobilization E max ± sem” value amounted to 241 ± 38 % over the baseline. For the same compound, the “selectivity for the NOP over classical opioid receptors” value at human NOP [3] (calcium mobilization, NOP vs μ, δ, κ receptors) is “more than 1000 fold”. Besides, the “NOP–G protein interaction E max ± sem” value at human NOP [4] (effects normalized to N/OFQ-NH2 (E max = 1), mean ± sem) is 0.80 ± 0.08.
